Several values for one entry are separate records, joined by “and”; a condition that tells them apart may be missing. Equal values may be shown once.
Legend:
[1] = xn = mol fraction of the nth substance listed; settings: 101 kPa, Liquid; for speed of sound: Pulse-echo method
[2] = 101 kPa, Liquid; for speed of sound: Pulse-echo method

Cc1ccc(C)cc1 [1,4-dimethylbenzene] + CCCCCCCCCCO
[1], x1 = 1
Settings | mass density [kg/m3] | speed of sound [m/s]
293.15 K | 860.96 | 1330
303.15 K | 852.25 | 1289
313.15 K | 843.51 | 1249

CCc1ccccc1 [ethylbenzene] + CCCCCCCCCO
[1], x1 = 1
Settings | mass density [kg/m3] | speed of sound [m/s]
293.15 K | 867.14 | 1340
303.15 K | 858.37 | 1298
313.15 K | 849.55 | 1257

Cc1cccc(C)c1 [1,3-dimethylbenzene] + CCCCCCCCCO
[1], x1 = 1
Settings | mass density [kg/m3] | speed of sound [m/s]
293.15 K | 864.18 | 1341
303.15 K | 855.56 | 1300
313.15 K | 846.9 | 1259

CCCCCCCCCCO [decan-1-ol]
[2]
Settings | mass density [kg/m3] | speed of sound [m/s]
293.15 K | 829.98 | 1396
303.15 K | 823.1 | 1362
313.15 K | 816.27 | 1329

CCc1ccccc1 [ethylbenzene] + CCCCCCCCCCO
[1], x1 = 1
Settings | mass density [kg/m3] | speed of sound [m/s]
293.15 K | 867.14 | 1340
303.15 K | 858.37 | 1298
313.15 K | 849.55 | 1257

CCCCCCCCCO [nonan-1-ol]
[2]
Settings | mass density [kg/m3] | speed of sound [m/s]
293.15 K | 827.7 | 1381
303.15 K | 820.82 | 1347
313.15 K | 813.88 | 1314

Cc1ccc(C)cc1 [1,4-dimethylbenzene] + CCCCCCCCCO
[1], x1 = 1
Settings | mass density [kg/m3] | speed of sound [m/s]
293.15 K | 860.96 | 1330
303.15 K | 852.25 | 1289
313.15 K | 843.51 | 1249

Cc1cccc(C)c1 [1,3-dimethylbenzene]
[2]
Settings | mass density [kg/m3] | speed of sound
293.15 K | 864.18 | 1341 m/s and 1340 m/s
303.15 K | 855.56 | 1300 m/s
313.15 K | 846.9 | 1259 m/s

CCc1ccccc1 [ethylbenzene]
[2]
Settings | mass density [kg/m3] | speed of sound [m/s]
293.15 K | 867.14 | 1340
303.15 K | 858.37 | 1298
313.15 K | 849.55 | 1257

Cc1ccccc1C [1,2-dimethylbenzene] + CCCCCCCCCCO
[1], x1 = 1
Settings | mass density [kg/m3] | speed of sound [m/s]
293.15 K | 879.49 | 1369
303.15 K | 871.14 | 1328
313.15 K | 862.59 | 1289

Cc1ccccc1C [1,2-dimethylbenzene] + CCCCCCCCCO
[1], x1 = 1
Settings | mass density [kg/m3] | speed of sound [m/s]
293.15 K | 879.49 | 1369
303.15 K | 871.14 | 1328
313.15 K | 862.59 | 1289

Cc1ccc(C)cc1 [1,4-dimethylbenzene]
[2]
Settings | mass density [kg/m3] | speed of sound [m/s]
293.15 K | 860.96 | 1330
303.15 K | 852.25 | 1289
313.15 K | 843.51 | 1249

Cc1ccccc1C [1,2-dimethylbenzene]
[2]
Settings | mass density [kg/m3] | speed of sound [m/s]
293.15 K | 879.49 | 1369
303.15 K | 871.14 | 1328
313.15 K | 862.59 | 1289

CCCCCCCCCCO [decan-1-ol] + Cc1cccc(C)c1
[1], x2 = 0
Settings | mass density [kg/m3] | speed of sound [m/s]
293.15 K | 829.98 | 1396
303.15 K | 823.1 | 1362
313.15 K | 816.27 | 1329
